Measured values from paper PMC6354023, “A phase I study of the HDM2 antagonist SAR405838 combined with the MEK inhibitor pimasertib in patients with advanced solid tumours” (British Journal of Cancer, 2018).
Read-outs that look alike come from different tables or passages of the source.

Columns and labels:
pERK = pERK levels in PMA-stimulated PBMCs by flow cytometry; type: in vivo, human
Protocol: MIC-1 protein concentrations were measured in plasma samples using an analytically validated enzyme-linked immunosorbent assay (Quantikine® Human GDF-15 immunoassay). pERK levels were determined by evaluating median value changes in response to ex vivo stimulation with or without phorbol myristate acetate (PMA) over time in whole-blood samples (CD 45^+ and lymphocyte populations) by flow cytometry (BD FACSCanto™ II instrument). Stimulated pERK levels were calculated as percentage (PMA-dimethylsulphoxide [DMSO])/DMSO).

[1] = parameters: method as in doi:10.1016/S0959-8049(12)72401-2; details: cited from earlier work
[2] = Pharmacokinetics of SAR405838 (whole-blood concentrations) in combination; type: in vivo, human; details: SAR405838 and pimasertib administered in combination
Text: (§1) Blood samples were collected on Days 1 (for pimasertib only), 2, 3, 8 and 15 of Cycle 1, on Days 1 and 2 of Cycle 2, and on Day 1 of Cycles 3 and 4, to determine the whole-blood and plasma concentrations of SAR405838 and pimasertib, respectively.

[3] = Safety assessments: adverse events (NCI-CTCAE v4.03), laboratory abnormalities; type: in vivo, human; details: of 26 treated patients, in combination
Protocol: Safety was assessed by the evaluation of AEs, DLTs, changes in vital signs, ECOG PS, physical examinations,12-lead electrocardiograms, determination of LVEF, ophthalmological examinations and clinical laboratory tests (including haematology, coagulation, blood chemistry and urinalysis).

[4] = Pharmacokinetics of pimasertib (plasma concentrations) in combination; type: in vivo, human; details: for AUC(0-t) / Cmax / half-life / Tmax: human, plasma, oral; for AUC(0-t): read-out: Pimasertib AUC0–12, mean ± SD; for Cmax: read-out: Pimasertib Cmax, mean ± SD; for half-life: read-out: Pimasertib t1/2 (converted); for Tmax: read-out: Pimasertib tmax, median (range)
Text: as §1

[5] = DL1 SAR405838 200 mg QD + pimasertib 45 mg BID, C1D2
[6] = DL1 SAR405838 200 mg QD + pimasertib 45 mg BID, C2D1
[7] = DL2a SAR405838 200 mg QD + pimasertib 60 mg QD, C1D1
[8] = DL2a SAR405838 200 mg QD + pimasertib 60 mg QD, C1D2
[9] = DL2b SAR405838 300 mg QD + pimasertib 45 mg BID, C1D1
[10] = DL2b SAR405838 300 mg QD + pimasertib 45 mg BID, C1D2
[11] = DL2b SAR405838 300 mg QD + pimasertib 45 mg BID, C2D1
[12] = DL3a SAR405838 300 mg QD + pimasertib 60 mg QD, C1D1
[13] = DL3a SAR405838 300 mg QD + pimasertib 60 mg QD, C1D2
[14] = DL3a SAR405838 300 mg QD + pimasertib 60 mg QD, C2D1
[15] = DL1 SAR405838 200 mg QD + pimasertib 45 mg BID, C1D1
[16] = DL2a SAR405838 200 mg QD + pimasertib 60 mg QD, C2D1

In the case of `O=C(NC[C@H](O)CO)c1ccncc1Nc1ccc(I)cc1F` [pimasertib], the “Time pERK inhibition was maintained” value (pERK) is listed as 4 h, the pERK inhibition (pERK; C1D1, C1D2 and C2D1, at or around tmax of pimasertib, at most DLs) is listed as ≥ 80% and the “Recommended phase II dose, monotherapy” value ([1]; BID) is listed as 60 mg. The “MTD, monotherapy, QD regimen” value ([1]; once daily) was 90 mg, the “DLTs, monotherapy” value ([1]; phase I dose-escalation trial) was “skin rash, acneiform dermatitis, ocular events and stomatitis” and the “MTD, monotherapy, BID regimen” value ([1]; twice daily) was 60 mg. The “PK in combination compared with PK as monotherapy” value [2] was “similar”, the “Patients with dose modification, reduction or omission” value [3] was 18 patients and the “Pimasertib tmax, median (range)” value [4, 5] was 1.5 [0.5–2] (7) h. The “Pimasertib tmax, median (range)” value [4, 6] was 1.5 [0.5–1.5] (6) h, the “Pimasertib AUC0–12, mean ± SD” value [4, 7] was 1120 ± 410 (4; 37) ng.h/mL and the “Pimasertib tmax, median (range)” value [4, 7] was 1.5 [0.5–1.5] (4) h. For the same molecule, the “Pimasertib AUC0–12, mean ± SD” value [4, 8] was 1130 ± 422 (4; 37) ng.h/mL, the “Pimasertib tmax, median (range)” value [4, 9] was 1.5 [0.5–1.5] (7) h and the “Pimasertib tmax, median (range)” value [4, 10] was 1.5 [1.5–2] (7) h. For the same molecule, the “Pimasertib tmax, median (range)” value [4, 11] was 1.5 [0.5–2] (6) h, the “Pimasertib t1/2” value [4, 12] was 5.25 ± 1.83 (7; 35) h and the “Pimasertib tmax, median (range)” value [4, 13] was 1.5 [0.5-2] (7) h. The “Pimasertib tmax, median (range)” value [4, 14] was 1.5 [0.5–1.5] (5) h, the “Exposure change with dose increase (33%)” value ([4]; between DL1/DL2b (pimasertib 45 mg BID) and DL2a/DL3a (pimasertib 60 mg BID)) was “resulted in pimasertib exposure increase” and the AUC(0-t) [4, 15] was 755 ± 382 ng·h/mL. The Cmax [4, 15] was 218 ± 108 ng/mL, the half-life [4, 15] was 4.76 ± 1.17 h and the Tmax [4, 15] was 0.5 h. It also gave an AUC(0-t) [4, 5] of 689 ± 324 ng·h/mL, a Cmax [4, 5] of 200 ± 102 ng/mL and an AUC(0-t) [4, 6] of 862 ± 350 ng·h/mL. It also gave a Cmax [4, 6] of 226 ± 70.6 ng/mL, a Cmax [4, 7] of 301 ± 69.9 ng/mL and a half-life [4, 7] of 5.38 ± 0.276 h. The Cmax [4, 8] was 303 ± 134 ng/mL, the Tmax [4, 8] was 1 h and the AUC(0-t) [4, 16] was 1040 ± 504 ng·h/mL. For the same molecule, the Cmax [4, 16] was 269 ± 134 ng/mL, the AUC(0-t) [4, 9] was 779 ± 594 ng·h/mL and the Cmax [4, 9] was 184 ± 109 ng/mL. For the same molecule, the half-life [4, 9] was 4.71 ± 1.39 h, the AUC(0-t) [4, 10] was 684 ± 367 ng·h/mL and the Cmax [4, 10] was 182 ± 110 ng/mL. For the same molecule, the AUC(0-t) [4, 11] was 532 ± 166 ng·h/mL, the Cmax [4, 11] was 147 ± 93.8 ng/mL and the AUC(0-t) [4, 12] was 935 ± 469 ng·h/mL. It also gave a Cmax [4, 12] of 221 ± 98.3 ng/mL, a Tmax [4, 12] of 1 h and an AUC(0-t) [4, 13] of 917 ± 390 ng·h/mL. For the same molecule, the Cmax [4, 13] was 200 ± 84.4 ng/mL, the AUC(0-t) [4, 14] was 765 ± 314 ng·h/mL and the Cmax [4, 14] was 243 ± 65.4 ng/mL.
